*1 amine or outer side, *2 acyl side, *3 side chain or, on linkers, in order; H or OH if unused. Where a SMILES comes first, the peptide text is derived from it. The star is where a group is joined. Suc = O=C(CCC(=O)[*:2])[*:1]; βNA = c1ccc2cc(N*)ccc2c1; Cbz = O=C(OCc1ccccc1)*
Tests used:
[1] = test system: B. melaninogenicus; experiment: Hydrolytic activity of cell suspension on aminopeptidase substrates (Experiment 2); assay type: cell-based; details: two strains, Table 2
Description: (§1) The strains of Treponema were anaerobically cultivated using TYGVS media at 37° C. for 7 days, while other bacterial strains were cultivated using brain heart infusion broth at 37° C. for 48 to 72 hours. Each culture was diluted to obtain a bacterial cell suspension, the absorption at 660 nm of which was 1.0.
(§2) Substrate compounds for aminopeptidase enzyme having various color developing groups derived from β-naphthylamine were dissolved in 0.1M Tris-HCl buffer (pH 7.0) at the concentration of 0.2 mM to obtain substrate solutions.
(§3) To the substrate solution (1.5 ml) was added the above cell suspension (0.3 ml) and reacted at 37° C. for 60 minutes. After completion of the reaction, a coloring reagent [prepared by dissolving diazonium salt of Garnet GBC in 1M acetate buffer (containing 10% Tween 20, pH: 4.2) at the concentration of 0.5 mg/ml] was added and, after 15 minutes, the absorption at 525 nm was determined with a spectrophotometer.
(§4) On the basis of the average amount of released β-naphthylamine in each strain, the hydrolytic activity was expressed as follows: […]
(§5) According to the same manner as described in Experiment 1, periodontopathic bacteria specific aminopeptidase activity was tested by using four strains of Treponema denticola, five strains of B. gingivalis, three strains of B. intermedius, two strains of B. melaninogenicus, two strains of Actinomyces israelli, four strains of Actinobacillus actinomycetemcomitans and three strains of Fusobacterium nucleatum. Abbreviations used in Table 2 mean the following substrate compounds.

[2] = test system: Fusobacterium nucleatum; experiment: as above; assay type: cell-based; details: three strains, Table 2
Description: as §1, §2, §3, §4, §5

[3] = test system: Actinobacillus actinomycetemcomitans; experiment: as above; assay type: cell-based; details: four strains, Table 2
Description: as §1, §2, §3, §4, §5

[4] = test system: B. corporis; experiment: as above; assay type: cell-based; details: Table 2
Description: as §1, §2, §3, §4, §5

[5] = test system: Actinomyces israelli; experiment: as above; assay type: cell-based; details: two strains, Table 2
Description: as §1, §2, §3, §4, §5

[6] = test system: B. intermedius; experiment: as above; assay type: cell-based; details: three strains, Table 2
Description: as §1, §2, §3, §4, §5

[7] = test system: B. denticola; experiment: as above; assay type: cell-based; details: Table 2
Description: as §1, §2, §3, §4, §5

[8] = test system: Treponema denticola; experiment: as above; assay type: cell-based; details: four strains, Table 2
Description: as §1, §2, §3, §4, §5

[9] = test system: B. gingivalis; experiment: as above; assay type: cell-based; details: five strains, Table 2
Description: as §1, §2, §3, §4, §5

[10] = test system: periodontopathic bacteria specific aminopeptidase activity; experiment: Hydrolytic activity of gingival crevicular fluid specimens, visually evaluated (Experiment 5); assay type: biochemical; set-up: key: -: orange; +: dark orange; ++: brown; +++: dark brown
Description: as §2, §3
Specimens of gingival crevicular fluid were collected with paper points from five subjects who were considered to be healthy from their clinical state, six subjects with gingivitis and six subjects with periodontitis. Each specimen was dispersed in Ringer's solution (1.5 ml), and the relative amount of spirochete to total bacteria: [formula] was determined with a phase contrast microscope. Further, the Ringer's solution (0.3 ml) was tested for hydrolytic activity using the substrate solution prepared in the same manner as described in Experiment 1. As substrates, there were used compounds of the formula [1], i.e., N-benzoylvalyl-glycyl-arginine-β-naphthylamide (BzVGR) and N-carbobenzoxy-valyl-glycyl-arginine-β-naphthylamide (CxVGR) were used.
In table 4, hydrolytic activity was visually evaluated and expressed as follows: […]
According to the same manner as described in Experiment 4, hydrolytic activity was tested by using the compounds of the formula [2], i.e., lysyl-proline-β-naphthylamide (KP) and N-carbobenzoxy-prolyl-alanyl-glycylproline-β-naphthylamide (CxPAGP) as the substrates.

SMILES: C[C@H](NC(=O)[C@@H]1CCCN1C(=O)OCc1ccccc1)C(=O)NCC(=O)N1CCC[C@H]1C(=O)Nc1ccc2ccccc2c1 [CxPAGP, N-carbobenzoxy-prolyl-alanyl-glycyl-proline-β-naphthylamide] (Cbz-PAGP-βNA)
- hydrolytic activity (average amount of released β-naphthylamine) [1]: +++ (release amount≥40 nmol/ml)
- hydrolytic activity (average amount of released β-naphthylamine) [2]: - (release amount<5 nmol/ml)
- hydrolytic activity (average amount of released β-naphthylamine) [3]: - (release amount<5 nmol/ml)
- hydrolytic activity (average amount of released β-naphthylamine) [4]: ++ (20 ≤release amount<40 nmol/ml)
- hydrolytic activity (average amount of released β-naphthylamine) [5]: - (release amount<5 nmol/ml)
- hydrolytic activity (average amount of released β-naphthylamine) [6]: +++ (release amount≥40 nmol/ml)
- hydrolytic activity (average amount of released β-naphthylamine) [7]: +++ (release amount≥40 nmol/ml)
- hydrolytic activity (average amount of released β-naphthylamine) [8]: +++ (release amount≥40 nmol/ml)
- hydrolytic activity (average amount of released β-naphthylamine) [9]: + (10 ≤release amount<20 nmol/ml)
- hydrolytic activity, visually evaluated ([10]; Gingivitis subject 1 (spirochete 7.3 %)): +
- hydrolytic activity, visually evaluated ([10]; Gingivitis subject 2 (spirochete 16.7 %)): +
- hydrolytic activity, visually evaluated ([10]; Gingivitis subject 3 (spirochete 20.5 %)): ++
- hydrolytic activity, visually evaluated ([10]; Gingivitis subject 4 (spirochete 6.8 %)): -
- hydrolytic activity, visually evaluated ([10]; Gingivitis subject 5 (spirochete 7.3 %)): -
- hydrolytic activity, visually evaluated ([10]; Gingivitis subject 6 (spirochete 14.4 %)): +
- hydrolytic activity, visually evaluated ([10]; Healthy subject 1 (spirochete 0.1 %)): -
- hydrolytic activity, visually evaluated ([10]; Healthy subject 2 (spirochete 2.5 %)): +
- hydrolytic activity, visually evaluated ([10]; Healthy subject 3 (spirochete 1.1 %)): -
- hydrolytic activity, visually evaluated ([10]; Healthy subject 4 (spirochete 0.6 %)): -
- hydrolytic activity, visually evaluated ([10]; Healthy subject 5 (spirochete 1.3 %)): -
- hydrolytic activity, visually evaluated ([10]; Periodontitis subject 1 (spirochete 45.2 %)): +++
- hydrolytic activity, visually evaluated ([10]; Periodontitis subject 2 (spirochete 30.3 %)): +++
- hydrolytic activity, visually evaluated ([10]; Periodontitis subject 3 (spirochete 34.6 %)): +++
- hydrolytic activity, visually evaluated ([10]; Periodontitis subject 4 (spirochete 21.2 %)): +++
- hydrolytic activity, visually evaluated ([10]; Periodontitis subject 5 (spirochete 40.3 %)): +++
- hydrolytic activity, visually evaluated ([10]; Periodontitis subject 6 (spirochete 35.1 %)): +++

SMILES: O=C(Nc1ccc2ccccc2c1)[C@@H]1CCCN1 [P, proline-β-naphthylamide, reference compound]
- hydrolytic activity (average amount of released β-naphthylamine) [1]: - (release amount<5 nmol/ml)
- hydrolytic activity (average amount of released β-naphthylamine) [2]: - (release amount<5 nmol/ml)
- hydrolytic activity (average amount of released β-naphthylamine) [3]: - (release amount<5 nmol/ml)
- hydrolytic activity (average amount of released β-naphthylamine) [4]: - (release amount<5 nmol/ml)
- hydrolytic activity (average amount of released β-naphthylamine) [5]: - (release amount<5 nmol/ml)
- hydrolytic activity (average amount of released β-naphthylamine) [6]: - (release amount<5 nmol/ml)
- hydrolytic activity (average amount of released β-naphthylamine) [7]: - (release amount<5 nmol/ml)
- hydrolytic activity (average amount of released β-naphthylamine) [8]: + (10 ≤release amount<20 nmol/ml)
- hydrolytic activity (average amount of released β-naphthylamine) [9]: - (release amount<5 nmol/ml)

SMILES: N[C@@H](CO)C(=O)N[C@@H](Cc1ccc(O)cc1)C(=O)Nc1ccc2ccccc2c1 [SY, seryl-tyrosine-β-naphthylamide, reference compound] (H-Ser-Tyr-βNA)
- hydrolytic activity (average amount of released β-naphthylamine) [1]: ± (5 ≤release amount<10 nmol/ml)
- hydrolytic activity (average amount of released β-naphthylamine) [2]: - (release amount<5 nmol/ml)
- hydrolytic activity (average amount of released β-naphthylamine) [3]: - (release amount<5 nmol/ml)
- hydrolytic activity (average amount of released β-naphthylamine) [4]: ± (5 ≤release amount<10 nmol/ml)
- hydrolytic activity (average amount of released β-naphthylamine) [5]: - (release amount<5 nmol/ml)
- hydrolytic activity (average amount of released β-naphthylamine) [6]: - (release amount<5 nmol/ml)
- hydrolytic activity (average amount of released β-naphthylamine) [7]: ± (5 ≤release amount<10 nmol/ml)
- hydrolytic activity (average amount of released β-naphthylamine) [8]: - (release amount<5 nmol/ml)
- hydrolytic activity (average amount of released β-naphthylamine) [9]: ++ (20 ≤release amount<40 nmol/ml)

SMILES: CC(C)C[C@H](NC(=O)[C@@H]1CCCN1C(=O)CNC(=O)CCC(=O)O)C(=O)NCC(=O)N1CCC[C@H]1C(=O)Nc1ccc2ccccc2c1 [ScGPLGP, N-succinyl-glycyl-prolyl-leucyl-glycyl-proline-β-naphthylamide] (Suc-GPLGP-βNA)
- hydrolytic activity (average amount of released β-naphthylamine) [1]: ± (5 ≤release amount<10 nmol/ml)
- hydrolytic activity (average amount of released β-naphthylamine) [2]: - (release amount<5 nmol/ml)
- hydrolytic activity (average amount of released β-naphthylamine) [3]: - (release amount<5 nmol/ml)
- hydrolytic activity (average amount of released β-naphthylamine) [4]: ± (5 ≤release amount<10 nmol/ml)
- hydrolytic activity (average amount of released β-naphthylamine) [5]: - (release amount<5 nmol/ml)
- hydrolytic activity (average amount of released β-naphthylamine) [6]: + (10 ≤release amount<20 nmol/ml)
- hydrolytic activity (average amount of released β-naphthylamine) [7]: ± (5 ≤release amount<10 nmol/ml)
- hydrolytic activity (average amount of released β-naphthylamine) [8]: + (10 ≤release amount<20 nmol/ml)
- hydrolytic activity (average amount of released β-naphthylamine) [9]: ± (5 ≤release amount<10 nmol/ml)

SMILES: CC(C)[C@H](N)C(=O)N[C@@H](C)C(=O)Nc1ccc2ccccc2c1 [VA, valyl-alanine-β-naphthylamide, reference compound] (H-Val-Ala-βNA)
- hydrolytic activity (average amount of released β-naphthylamine) [1]: ± (5 ≤release amount<10 nmol/ml)
- hydrolytic activity (average amount of released β-naphthylamine) [2]: - (release amount<5 nmol/ml)
- hydrolytic activity (average amount of released β-naphthylamine) [3]: - (release amount<5 nmol/ml)
- hydrolytic activity (average amount of released β-naphthylamine) [4]: ± (5 ≤release amount<10 nmol/ml)
- hydrolytic activity (average amount of released β-naphthylamine) [5]: - (release amount<5 nmol/ml)
- hydrolytic activity (average amount of released β-naphthylamine) [6]: - (release amount<5 nmol/ml)
- hydrolytic activity (average amount of released β-naphthylamine) [7]: ± (5 ≤release amount<10 nmol/ml)
- hydrolytic activity (average amount of released β-naphthylamine) [8]: - (release amount<5 nmol/ml)
- hydrolytic activity (average amount of released β-naphthylamine) [9]: ++ (20 ≤release amount<40 nmol/ml)

From patent publication US5137811A, “Method for diagnosing periodontal diseases with a substrate specific for aminopeptidase activity of periodontopathic bacteria” (Sunstar Kabushiki Kaisha, priority 1986, dated 1992)
